According to PMC2846458 (Nature medicine, 2008):
Positions count from the first letter of the chain named.

How the values were obtained:
[1] = target: T1, ALK2^Q207D (Homo sapiens, UniProt Q04771, Q207D); test: Id1 promoter activity; assay type: cell-based
T1 sequence (Q04771 21-509 Q207D): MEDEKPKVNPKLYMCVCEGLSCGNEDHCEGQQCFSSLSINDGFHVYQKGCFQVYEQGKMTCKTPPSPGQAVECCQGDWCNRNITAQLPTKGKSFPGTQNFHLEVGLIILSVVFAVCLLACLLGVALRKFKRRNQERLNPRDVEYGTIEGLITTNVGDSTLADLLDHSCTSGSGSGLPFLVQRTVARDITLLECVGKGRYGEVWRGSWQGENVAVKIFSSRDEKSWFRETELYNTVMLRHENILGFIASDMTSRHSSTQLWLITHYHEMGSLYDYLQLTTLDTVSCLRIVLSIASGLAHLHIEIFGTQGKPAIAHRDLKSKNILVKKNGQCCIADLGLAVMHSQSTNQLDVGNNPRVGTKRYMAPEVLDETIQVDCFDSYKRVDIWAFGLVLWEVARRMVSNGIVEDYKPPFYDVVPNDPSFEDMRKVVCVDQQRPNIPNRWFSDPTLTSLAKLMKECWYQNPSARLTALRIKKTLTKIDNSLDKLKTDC

[2] = test system: C2C12 cells; test: BMP4-induced alkaline phosphatase activity; assay type: cell-based; conditions: 100 nM, BMP4 10 ng ml^-1, even when administered 12 h after BMP stimulation
[3] = Tolerability of treatment in mice
[4] = test system: Ad.Cre-injected conditional caALK2–transgenic mice; test: Ectopic ossification in Ad.Cre-injected conditional caALK2-transgenic mice; assay type: in vivo, mouse
[5] = test system: TGF-β signaling; test: Immunoblot of TGF-β signaling in PASMCs; assay type: cell-based; conditions: Mus musculus, PASMC, read-out: IC50 for TGF-β signaling
[6] = target: T2, ALK2^R206H (Homo sapiens, UniProt Q04771, R206H); test: Id1 promoter activity; assay type: cell-based
T2 sequence (Q04771 21-509 R206H): T1 sequence (Q04771 21-509 Q207D) with R186H, D187Q

[7] = 3 mg kg^-1 i.p. every 12 h, lesions attenuated in the remainder

SMILES | effect on transcriptional activity induced by ALK2^Q207D [1] | effect on induction of alkaline phosphatase activity by BMP4 [2] | fractures, osteopenia, skeletal abnormalities ([3]; 3 mg kg^-1 i.p. every 12 h, up to P60) | endochondral bone in hindlimbs (histology) ([4]; 3 mg kg^-1 i.p. every 12 h) | phosphorylated Smad1/5/8 and Runx2 staining in left gastrocnemius ([4]; 3 mg kg^-1 i.p. every 12 h, P11) | passive range of motion in the ankle joint ([4]; 3 mg kg^-1 i.p. every 12 h, P15 and P30, versus vehicle) | fraction of mice in which ectopic bone was prevented at P30 [4, 7] | fraction of mice in which ectopic bone was prevented at P60 [4, 7] | radiographic lesions at P15 ([4]; 3 mg kg^-1 i.p. every 12 h after Ad.Cre on P7) | IC50 [5] [µM] | effect on transcriptional activity induced by ALK2^R206H [6] | effect on weight and growth ([3]; wild-type or mutant mice, during drug administration) | ectopic calcifications and immobility at P30 ([4]; 10 mg kg^-1 d^-1 i.p. starting 1 d after Ad.Cre at P7, versus vehicle)
c1ccc2c(-c3cnn4cc(-c5ccc(N6CCNCC6)cc5)cnc34)ccnc2c1 [LDN-193189, 4-[6-(4-piperazin-1-ylphenyl)pyrazolo[1,5-a]pyrimidin-3-yl]quinoline] | blocked the transcriptional activity | inhibited the induction of alkaline phosphatase activity | without inducing fractures, osteopenia or skeletal abnormalities | substantially less endochondral bone | diminished | significant rescue of function | approximately two-thirds | one-third | prevented radiographic lesions at P15 in all mice examined | ≥ 1 | blocked the transcriptional activity | – | –
C[C@@H]1C[C@H]2[C@@H]3CCC4=CC(=O)C=C[C@]4(C)[C@@]3(F)[C@@H](O)C[C@]2(C)[C@@]1(O)C(=O)CO [dexamethasone, reference compound] | – | – | – | – | – | – | – | – | – | – | – | severely impaired weight gain | markedly reduced
